# Read-outs that look alike come from different tables or passages of the source. Marks after values point to notes of the source that are not given here.
# Experiments:
# [1] = biological target: T1, glycogen phosphorylase α (GP-α) (Oryctolagus cuniculus, UniProt P00489); assay: GP-α inhibition assay; type: biochemical
# T1 sequence (P00489 2-843 limits assumed): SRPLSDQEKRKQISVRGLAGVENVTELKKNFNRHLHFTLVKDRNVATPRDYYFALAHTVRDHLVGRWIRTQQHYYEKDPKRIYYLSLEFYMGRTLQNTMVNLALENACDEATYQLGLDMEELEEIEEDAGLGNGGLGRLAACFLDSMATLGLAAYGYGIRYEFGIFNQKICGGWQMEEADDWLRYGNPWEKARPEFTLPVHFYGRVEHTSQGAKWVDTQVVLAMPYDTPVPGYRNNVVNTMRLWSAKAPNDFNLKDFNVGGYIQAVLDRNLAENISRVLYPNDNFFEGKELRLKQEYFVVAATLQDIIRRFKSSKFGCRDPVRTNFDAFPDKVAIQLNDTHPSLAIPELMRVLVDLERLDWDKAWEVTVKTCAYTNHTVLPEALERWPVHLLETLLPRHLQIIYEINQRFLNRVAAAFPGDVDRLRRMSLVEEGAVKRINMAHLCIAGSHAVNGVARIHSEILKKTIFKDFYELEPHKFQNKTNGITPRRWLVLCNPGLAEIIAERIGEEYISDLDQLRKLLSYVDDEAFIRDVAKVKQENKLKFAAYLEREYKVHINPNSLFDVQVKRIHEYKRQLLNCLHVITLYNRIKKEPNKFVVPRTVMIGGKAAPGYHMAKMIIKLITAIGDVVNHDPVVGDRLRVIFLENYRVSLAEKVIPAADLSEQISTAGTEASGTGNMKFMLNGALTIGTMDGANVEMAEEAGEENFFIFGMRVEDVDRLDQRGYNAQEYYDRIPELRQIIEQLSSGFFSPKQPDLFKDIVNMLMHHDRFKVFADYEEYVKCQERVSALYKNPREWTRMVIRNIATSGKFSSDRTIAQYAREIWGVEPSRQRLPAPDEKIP
# [2] = biological target: α-glucosidase (Saccharomyces cerevisiae, UniProt P53341); assay: α-glucosidase inhibition assay (pNPG); type: biochemical
# Description: The fractions from B. javanica seeds were evaluated as GP-α inhibitors and were further tested for their α-glucosidase inhibitory activity as described previously. Briefly, 50 μL of samples or standard were mixed with 100 μL of α-glucosidase (0.1 U/mL) in phosphate buffer (0.1 M, pH 6.9) and incubated at 37 °C for 10 min. The reactions were initiated by addition of p-Nitrophenyl α-D-Glucoside (p-NPG, 50 μL) in phosphate buffer (0.1 M, pH 6.9) and incubated again at 37 °C for 30 min. The reactions were terminated using NaCO3 (1 M, 50 μL). […] Phosphate buffer (50 μL) was used as control. Blank readings (without substrate) were subtracted from specific sample wells and the percentage of α-Glucosidase inhibition (αGI) was calculated as following formula: αGI (%) = [(Acontrol – Asample)/Acontrol] × 100 [22].
# α-glucosidase inhibition activity of isolated compounds were determined according to the method described in section 2.3 and GP-α inhibition activity was measured according to our previously reported method.
# [3] = tested on: nondiabetic mice; conditions: 1 mg/kg b.w., 0-8 h screening; cited from earlier work
# [4] = tested on: STZ-induced diabetic rats; conditions: 1 mg/kg b.w., 0-8 h screening; cited from earlier work
# [5] = tested on: NA-STZ induced type 2 diabetic (T2D) rats; assay: Fasting blood glucose levels in NA-STZ T2D rats, 28-day oral treatment; type: in vivo, Sprague Dawley (SD) rats; conditions: for Fasting blood glucose level: 10 mg/kg/day b.w. oral
# Description: The experimental rats were fasted overnight (16 h) and diabetes was induced by single intraperitoneal (i.p) injection of STZ (60 mg/kg b.w.) freshly prepared in 0.1 M citrate buffer (pH 4.5) 15 min after i.p injection of NA (100 mg/kg b.w.) dissolved in normal saline. Diabetes was confirmed 3 weeks after NA-STZ induction by measuring tail vein blood glucose levels using glucose meter (Accu-check Performa, Rochi diagnostic, USA). The rats having blood glucose levels higher than 11 mmol/L were considered as diabetic and selected for study.
# The experimental rats were divided into 5 groups (n = 6; 3 M/3 F) as following. Group I: non-diabetic control (NDC) and Group II: diabetic control (DC) consisted of rats were allowed to free access of water; Group III and IV were treated orally with EAF (25 and 50 mg/kg/day b.w.) diluted in distilled water, Group V was treated orally with Glibenclamide (10 mg/kg/day b.w.) and served as standard drug. All groups except group 1 are diabetic. The selected doses (25 and 50 mg/kg/day b.w) were based on prior acute oral toxicity study.
# (§1) After diabetes was confirmed, rats were divided into specific groups which were mentioned in the section of treatment protocol above. Fasting blood glucose (FBG) levels and body weight of rats were measured and it was considered as 0 day. The extracts and standard drug were administered orally on a daily base in single dose for 28 days. At the end of each week, animals were fasted overnight and body weights were recorded using electronic balance. Blood samples were obtained from the tail vein of the rats by Accu-Chek FastClix lancing device and blood glucose levels were analysed using glucose meter (Accu-check, Roche Diagnostics, USA).
# [6] = Body weights in T2D rats; type: in vivo, Sprague Dawley (SD) rats; conditions: 10 mg/kg/day b.w. oral
# Description: as §1
# [7] = tested on: NA-STZ induced type 2 diabetic (T2D) rats; assay: Oral glucose tolerance test (OGTT) in T2D rats; type: in vivo, Sprague Dawley (SD) rats; conditions: 10 mg/kg
# Description: On the 25th day of treatment, the OGTT was carried out according to the previously reported method. All animals were fasted overnight (16 h) before commencing the experiments. Group I (non-diabetic control) and Group II (diabetic control) weretreated with distilled water, Group III and Group IV were given EAF (25 and 50 mg/kg b.w), and Group V was given glibenclamide (10 mg/kg b.w.) using oral gavage, respectively. After 30 min, α-D-glucose (2 g/kg b.w.) was administered orally into all groups of rats. Blood samples were collected from the tail vein at 0 (immediately after glucose load), 30, 60, 90, and 120 min, and blood glucose levels were determined by glucose oxidase method using a commercial glucose meter (Roche, USA). […] AUCglucose=C1+C2/2×t2−t1
# Where, C1 and C2 are concentrations of glucose at different time points; t1 and t2 are different tested time points.
# [8] = tested on: NA-STZ induced type 2 diabetic (T2D) rats; assay: Serum insulin levels and HOMA-IR in T2D rats; type: in vivo, Sprague Dawley (SD) rats; conditions: 10 mg/kg, 4 weeks, not significant
# Description: (§2) At the end of study period, rats were fasted overnight, anesthetized, and the blood sample was collected by cardiac puncture. At the end, the rats were sacrificed by cervical dislocation. The blood sample was centrifuged 2000 x g for 15 minute at 4 °C, serum was collected and stored at −80 °C until analyses. The liver was carefully removed, washed in ice-cold phosphate buffered saline (PBS, pH 7.4) to remove the blood. A piece of liver sample was rinsed in liquid nitrogen, stored at −80 °C for glycogen assay.
# The serum insulin levels were quantified by using rat insulin ELISA kit (Mercodia AB, Uppsala, Sweden) according to the manufacturer’s instructions. Insulin resistance (IR) was calculated according to the homeostasis model assessment by using the following equation [24] HOMA−IR=glucosemmol/L×insulinμU/mL/22.5
# [9] = tested on: NA-STZ induced type 2 diabetic (T2D) rats; assay: Serum lipid profiles in T2D rats; type: in vivo, Sprague Dawley (SD) rats; conditions: 10 mg/kg, 4 weeks
# Description: as §2
# (§3) The levels of serum total cholesterol (TC), triglycerides (TG), low density lipoprotein cholesterol (LDL-C), and high density lipoprotein cholesterol (HDL-C), total protein, alkaline phosphatase (ALP), alanine aminotransferase (ALT), aspartate aminotransferase (AST), urea, creatinine were analyzed using automatic biochemical analyzer (Beckman-700, Fullerton, CA, USA)
# [10] = tested on: NA-STZ induced type 2 diabetic (T2D) rats; assay: Liver and renal function markers in T2D rats; type: in vivo, Sprague Dawley (SD) rats; conditions: 10 mg/kg b.w., 4 weeks, serum
# Description: as §2, §3
# [11] = tested on: NA-STZ induced type 2 diabetic (T2D) rats; assay: Serum MDA and GSH levels in T2D rats; type: in vivo, Sprague Dawley (SD) rats; conditions: 10 mg/kg
# Description: as §2
# The malondialdehyde (MDA), a byproduct of lipid peroxidation, and glutathione (GSH), a marker of antioxidant defense, were quantified by commercial kit (Cayman chemical company, Ann Arbor, MI, USA) according to the manufacturer’s instructions.
# [12] = tested on: NA-STZ induced type 2 diabetic (T2D) rats; assay: Serum cytokine levels (ELISA) in T2D rats; type: in vivo, Sprague Dawley (SD) rats; conditions: 10 mg/kg b.w.
# Description: as §2
# The quantification of cytokine in the serum was assessed by enzyme-linked immunosorbent assay (ELISA) using commercial kits for rat TNF-α, rat IL-6, and rat IL-1β (eBioscience, San Diego, CA USA) according to the manufacturer’s instructions.
# [13] = tested on: NA-STZ induced type 2 diabetic (T2D) rats; assay: Liver glycogen contents in T2D rats; type: in vivo, Sprague Dawley (SD) rats; conditions: 10 mg/kg b.w.
# Description: as §2
# The glycogen contents in the liver were measured using a glycogen assay kit (Ann Arbor, MI, USA) according to the manufacturer’s instructions.
# [14] = isolated compounds, read-out: Glycogen phosphorylase α IC50
# α-glucosidase, sequence (P53341 whole entry): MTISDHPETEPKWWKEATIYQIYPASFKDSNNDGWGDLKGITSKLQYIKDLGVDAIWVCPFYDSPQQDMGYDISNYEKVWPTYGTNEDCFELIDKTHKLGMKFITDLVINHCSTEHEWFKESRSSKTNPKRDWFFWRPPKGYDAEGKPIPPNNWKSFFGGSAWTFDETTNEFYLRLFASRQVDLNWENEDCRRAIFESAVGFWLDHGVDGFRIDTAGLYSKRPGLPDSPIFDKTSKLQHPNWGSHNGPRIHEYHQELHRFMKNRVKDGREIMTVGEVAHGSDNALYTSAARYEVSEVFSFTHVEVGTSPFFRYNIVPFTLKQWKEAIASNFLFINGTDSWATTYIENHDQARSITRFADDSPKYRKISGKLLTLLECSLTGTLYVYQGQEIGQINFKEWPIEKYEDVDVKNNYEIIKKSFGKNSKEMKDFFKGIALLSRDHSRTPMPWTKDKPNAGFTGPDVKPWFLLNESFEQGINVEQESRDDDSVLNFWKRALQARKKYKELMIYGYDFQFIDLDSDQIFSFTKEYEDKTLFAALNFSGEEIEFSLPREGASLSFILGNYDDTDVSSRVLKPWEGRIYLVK
smiles,measurement,setting,value
"O=C(O)c1ccc(O)cc1 [Compound 4, Para-hydroxybenzoic acid]",IC50,[1]; [14],357.88 ± 0.07 µM
"O=c1cc(-c2ccc(O)c(O)c2)oc2cc(O)cc(O)c12 [Compound 5, luteolin]",IC50,[1]; [14],45.08 ± 0.04 µM
same,GP-α inhibitory potency relative to caffeine,[1]; vs caffeine,10 fold
same,α-glucosidase inhibitory potency relative to acarbose,[2]; vs acarbose,5.5 fold
"CC1=CC(=O)[C@@H](O)[C@]2(C)[C@H]3[C@@H](O)[C@H](O)[C@]4(C)OC[C@@]35[C@@H](C[C@@H]12)OC(=O)[C@H](O)[C@]54O [Compound 2, bruceine D]",GP-α inhibition,[1],no inhibition
same,α-glucosidase inhibition,[2],no inhibition
same,inhibitory activity against α-glucosidase,[2]; at 2.5 mM,14.74%
same,blood glucose effect,[3],blood glucose lowering effect
same,blood glucose effect,[4],blood glucose lowering effect
"CC1=C[C@H](O)[C@@H](O)[C@]2(C)[C@H]3[C@@H](O)[C@H](O)[C@@]4(C)OC[C@@]35[C@@H](C[C@@H]12)OC(=O)[C@H](O)[C@]54O [Compound 3, bruceine E]",GP-α inhibition,[1],no inhibition
same,inhibition at 5000 µM,"[1]; at 5 mM, read-out: inhibitory activity against GP-α",32.7%
same,α-glucosidase inhibition,[2],no inhibition
same,inhibition at 2500 µM,"[2]; at 2.5 mM, read-out: inhibitory activity against α-glucosidase",16.1%
same,blood glucose effect,[3],blood glucose lowering effect
same,blood glucose effect,[4],blood glucose lowering effect
"O=C(O)c1ccc(O)c(O)c1 [Compound 6, protocatechuic acid]",IC50,[1]; [14],297.37 ± 0.13 µM
"COc1ccc(Cl)cc1C(=O)NCCc1ccc(S(=O)(=O)NC(=O)NC2CCCCC2)cc1 [Glibenclamide, glibenclamide]",reduction of FBG levels compared to initial day,[5]; 10 mg/kg b.w. once a day for 28 days,45.44%
same,Fasting blood glucose level,[5]; 0 Day,16.90 ± 1.63 mmol/L
same,Fasting blood glucose level,[5]; Day 7,17.63 ± 2.13 mmol/L
same,Fasting blood glucose level,[5]; Day 14,12.97 ± 0.72 mmol/L
same,Fasting blood glucose level,[5]; Day 21,11.83 ± 1.27 mmol/L
same,Fasting blood glucose level,[5]; Day 28,9.22 ± 0.65^a mmol/L
same,Body Weight,[6]; 0 Day,211.00 ± 6.19 g
same,Body Weight,[6]; Day 7,203.50 ± 8.90 g
same,Body Weight,[6]; Day 14,205.83 ± 7.31 g
same,Body Weight,[6]; Day 21,206.00 ± 6.64 g
same,Body Weight,[6]; Day 28,209.33 ± 7.91 g
same,decrease of AUC for glucose 0 to 120 min compared to DC group,[7],57.42%
same,OGTT blood glucose reduction at 120 min compared to the values at 30 min,"[7]; day 25, glucose 2 g/kg",29.97%
same,increase of serum insulin compared to diabetic control group,[8],16.5%
same,Serum HDL,[9],1.31 ± 0.08^a mmol/L
same,Serum LDL,[9],0.59 ± 0.04^a mmol/L
same,Serum TC,[9],1.12 ± 0.05^c mmol/L
same,Serum TG,[9],0.52 ± 0.09^b mmol/L
same,ALP,[10],146.67 ± 10.50 U/L
same,ALT,[10],58.17 ± 4.52 U/L
same,AST,[10],138.83 ± 8.33 U/L
same,Creatinine,[10],29.00 ± 0.93 µmol/L
same,Urea,[10],10.37 ± 1.80 mmol/L
same,reduction of serum MDA level compared to DC group,[11],about 36.45%
same,increase of serum GSH level compared to DC group,[11]; not significant,about 18.94%
same,IL-1β,[12],570.67 ± 31.71^b pg/ml
same,IL-6,[12],123.06 ± 10.18^b pg/ml
same,TNF-α,[12],70.10 ± 4.00^b pg/ml
same,LG (liver glycogen),[13],11.55 ± 1.82 mg/g tissue
"O=C(O)c1cc(O)c(O)c(O)c1 [Compound 7, gallic acid]",IC50,[1],214.38 ± 0.12 µM
"COc1cc(C(=O)O)ccc1O [Compound 1, vanillic acid]",GP-α inhibition,[1],no inhibition
same,inhibition at 12000 µM,[1]; at 12 mM,22.9%
same,α-glucosidase inhibition,[2],no inhibition
same,α-glucosidase inhibition,[2]; concentrations tested up to 6 mM,did not inhibit

# From article PMC5294771, “Antidiabetic effects of Brucea javanica seeds in type 2 diabetic rats” (BMC Complementary and Alternative Medicine, 2017)
